# Laboratory results reported in US12129237B2, “Substituted diaminocarboxamide and diaminocarbonitrile pyrimidines, compositions thereof, and methods of treatment therewith” (SIGNAL PHARMACEUTICALS, LLC, priority 2011, dated 2024).
# Molecular target: T1, JNK1 (Homo sapiens, UniProt P45983)
# T1 construct: purchased Carna Biosciences
# Test: JNK1 biochemical assays (one or more of: time resolved fluorescence, Z'-LYTE Cascade, radioactive)
# Conditions: Table 2; JNK1 IC50 activity level; read-out: Act. Level
# T1 sequence (P45983 whole entry): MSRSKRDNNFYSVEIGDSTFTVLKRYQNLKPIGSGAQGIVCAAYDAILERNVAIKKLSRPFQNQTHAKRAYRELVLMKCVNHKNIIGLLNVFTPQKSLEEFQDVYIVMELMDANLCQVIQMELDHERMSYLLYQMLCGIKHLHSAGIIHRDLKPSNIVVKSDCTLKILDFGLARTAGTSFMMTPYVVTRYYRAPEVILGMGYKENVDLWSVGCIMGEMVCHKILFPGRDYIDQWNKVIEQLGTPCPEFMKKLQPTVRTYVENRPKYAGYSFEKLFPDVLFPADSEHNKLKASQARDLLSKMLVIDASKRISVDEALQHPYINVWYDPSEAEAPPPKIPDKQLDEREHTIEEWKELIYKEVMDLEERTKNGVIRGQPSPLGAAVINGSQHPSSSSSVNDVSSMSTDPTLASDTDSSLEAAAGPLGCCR
row,IC50,SMILES
1,< 200 nM,"C[C@]1(O)CCC[C@@H](Nc2nc(N[C@H]3CCc4ncccc4C3)ncc2C(N)=O)C1 [Example B-102, 4-((1R,3S)-3-hydroxy-3-methylcyclohexylamino)-2-((S)-5,6,7,8-tetrahydroquinolin-6-ylamino)pyrimidine-5-carboxamide]"

# Same assay, conditions: Table 3; JNK1 IC50 activity level; read-out: Act. Level
row,IC50,SMILES
1,200 to 800 nM,"CCO[C@H]1CC[C@H](Nc2ncc(C#N)c(N[C@H]3CCC[C@@H](O)C3)n2)CC1 [Example C-1, 2-((1r,4S)-4-ethoxycyclohexylamino)-4-((1S,3R)-3-hydroxycyclohexylamino) pyrimidine-5-carbonitrile]"
2,< 200 nM,"CCO[C@H]1CC[C@H](Nc2ncc(C#N)c(N[C@@H]3CCC[C@H](O)C3)n2)CC1 [Example C-2, 2-((1r,4R)-4-ethoxycyclohexylamino)-4-((1R,3S)-3-hydroxycyclohexylamino) pyrimidine-5-carbonitrile]"
3,200 to 800 nM,"N#Cc1cnc(NC2CCC(F)(F)CC2)nc1N[C@@H]1CCC[C@H](O)C1 [Example C-3, 2-(4,4-difluorocyclohexylamino)-4-((1R,3S)-3-hydroxycyclohexylamino) pyrimidine-5-carbonitrile]"
4,< 200 nM,"CO[C@H]1CC[C@H](Nc2ncc(C#N)c(N[C@@H]3CCC[C@H](O)C3)n2)CC1 [Example C-4, 4-((1R,3S)-3-hydroxycyclohexylamino)-2-((1r,4R)-4-methoxycyclohexylamino) pyrimidine-5-carbonitrile]"
5,200 to 800 nM,"N#Cc1cnc(NC2CCOCC2)nc1N[C@@H]1CCC[C@H](O)C1 [Example C-5, 4-((1R,3S)-3-hydroxycyclohexylamino)-2-(tetrahydro-2H-pyran-4-ylamino)pyrimidine-5-carbonitrile]"
6,< 200 nM,"N#Cc1cnc(N[C@H]2CC[C@H](OC(F)F)CC2)nc1N[C@@H]1CCC[C@H](O)C1 [Example C-6, 2-((1r,4R)-4-(difluoromethoxy)cyclohexylamino)-4-((1R,3S)-3-hydroxycyclohexylamino) pyrimidine-5-carbonitrile]"
7,200 to 800 nM,"CC(C)(C)Nc1ncc(C#N)c(N[C@@H]2CCC[C@H](O)C2)n1 [Example C-7, 2-(tert-butylamino)-4-((1R,3S)-3-hydroxycyclohexylamino) pyrimidine-5-carbonitrile]"
8,< 200 nM,"N#Cc1cnc(N[C@H]2CC[C@H](O)CC2)nc1N[C@@H]1CCC[C@H](O)C1 [Example C-8, 4-((1R,3S)-3-hydroxycyclohexylamino)-2-((1r,4R)-4-hydroxycyclohexylamino) pyrimidine-5-carbonitrile]"
9,< 200 nM,"CN(C)C(=O)[C@H]1CC[C@H](Nc2ncc(C#N)c(N[C@@H]3CCC[C@H](O)C3)n2)CC1 [Example C-9, (1R,4r)-4-(5-cyano-4-((1R,3S)-3-hydroxycyclohexylamino)pyrimidin-2-ylamino)-N,N-dimethylcyclohexanecarboxamide]"
10,< 200 nM,"N#Cc1cnc(NC2CCCCC2)nc1N[C@@H]1CCC[C@H](O)C1 [Example C-10, 2-(cyclohexylamino)-4-((1R,3S)-3-hydroxycyclohexylamino) pyrimidine-5-carbonitrile]"
11,< 200 nM,"CN[C@H]1CC[C@H](Nc2ncc(C#N)c(N[C@@H]3CCC[C@H](O)C3)n2)CC1 [Example C-11, 4-((1R,3S)-3-hydroxycyclohexylamino)-2-((1r,4R)-4-(methylamino)cyclohexylamino) pyrimidine-5-carbonitrile]"
12,200 to 800 nM,"CO[C@H]1CC[C@H](Nc2ncc(C#N)c(N[C@H]3CC[C@@H](O)CC3)n2)CC1 [Example C-12, 4-((1s,4s)-4-hydroxycyclohexylamino)-2-((1r,4r)-4-methoxycyclohexylamino) pyrimidine-5-carbonitrile]"
13,< 200 nM,"CC(=O)N[C@H]1CC[C@H](Nc2ncc(C#N)c(N[C@@H]3CCC[C@H](O)C3)n2)CC1 [Example C-13, N-((1R,4r)-4-(5-cyano-4-((1R,3S)-3-hydroxycyclohexylamino)pyrimidin-2-ylamino)cyclohexyl)acetamide]"
14,< 200 nM,"N#Cc1cnc(N[C@H]2CC[C@H](OCC(F)(F)F)CC2)nc1N[C@@H]1CCC[C@H](O)C1 [Example C-14, 4-((1R,3S)-3-hydroxycyclohexylamino)-2-((1r,4R)-4-(2,2,2-trifluoroethoxy)cyclohexylamino) pyrimidine-5-carbonitril]"
15,800 to 1000 nM,"CO[C@H]1CC[C@H](Nc2ncc(C#N)c(N[C@H]3CC[C@H](O)CC3)n2)CC1 [Example C-15, 4-((1r,4r)-4-hydroxycyclohexylamino)-2-((1r,4r)-4-methoxycyclohexylamino) pyrimidine-5-carbonitrile]"
16,< 200 nM,"CO[C@H]1CC[C@H](Nc2ncc(C#N)c(N[C@@H]3CCC[C@@H]3CO)n2)CC1 [Example C-16, 4-((1R,2S)-2-(hydroxymethyl)cyclopentylamino)-2-((1r,4R)-4-methoxycyclohexylamino) pyrimidine-5-carbonitrile]"
17,800 to 1000 nM,"CO[C@H]1CC[C@H](Nc2ncc(C#N)c(NC(C)C)n2)CC1 [Example C-17, 4-(isopropylamino)-2-((1r,4r)-4-methoxycyclohexylamino) pyrimidine-5-carbonitrile]"
18,< 200 nM,"CO[C@H]1CC[C@H](Nc2ncc(C#N)c(N[C@@H]3CCC[C@H]3O)n2)CC1 [Example C-18, 4-((1R,2R)-2-hydroxycyclopentylamino)-2-((1r,4R)-4-methoxycyclohexylamino) pyrimidine-5-carbonitrile]"

row,IC50,SMILES
1,< 200 nM,"CO[C@H]1CC[C@H](Nc2ncc(C#N)c(N[C@@H]3CCC[C@](C)(O)C3)n2)CC1 [Example C-19, 4-((1R,3S)-3-hydroxy-3-methylcyclohexylamino)-2-((1r,4R)-4-methoxycyclohexylamino) pyrimidine-5-carbonitrile]"
2,200 to 800 nM,"CCO[C@H]1CC[C@H](Nc2ncc(C#N)c(NC3CCCCC3)n2)CC1 [Example C-20, 4-(cyclohexylamino)-2-((1r,4r)-4-ethoxycyclohexylamino) pyrimidine-5-carbonitrile]"
3,1000 to 10000 nM,"CCO[C@H]1CC[C@H](Nc2ncc(C#N)c(NC3CCOCC3)n2)CC1 [Example C-21, 2-((1r,4r)-4-ethoxycyclohexylamino)-4-(tetrahydro-2H-pyran-4-ylamino)pyrimidine-5-carbonitrile]"
4,200 to 800 nM,"CCO[C@H]1CC[C@H](Nc2ncc(C#N)c(N[C@H]3CC[C@@H](O)CC3)n2)CC1 [Example C-22, 2-((1r,4r)-4-ethoxycyclohexylamino)-4-((1s,4s)-4-hydroxycyclohexylamino) pyrimidine-5-carbonitrile]"
5,200 to 800 nM,"CCO[C@H]1CC[C@H](Nc2ncc(C#N)c(NC3CCCC3)n2)CC1 [Example C-23, 4-(cyclopentylamino)-2-((1r,4r)-4-ethoxycyclohexylamino) pyrimidine-5-carbonitrile]"
6,1000 to 10000 nM,"CCO[C@H]1CC[C@H](Nc2ncc(C#N)c(N[C@H]3CCCOC3)n2)CC1 [Example C-24, 2-((1r,4S)-4-ethoxycyclohexylamino)-4-((S)-tetrahydro-2H-pyran-3-ylamino)pyrimidine-5-carbonitrile]"
7,800 to 1000 nM,"CCO[C@H]1CC[C@H](Nc2ncc(C#N)c(N[C@H]3CC[C@H](O)CC3)n2)CC1 [Example C-25, 2-((1r,4r)-4-ethoxycyclohexylamino)-4-((1r,4r)-4-hydroxycyclohexylamino) pyrimidine-5-carbonitrile]"
8,200 to 800 nM,"CCO[C@H]1CC[C@H](Nc2ncc(C#N)c(N[C@@H]3CCCOC3)n2)CC1 [Example C-26, 2-((1r,4R)-4-ethoxycyclohexylamino)-4-((R)-tetrahydro-2H-pyran-3-ylamino)pyrimidine-5-carbonitrile]"
9,< 200 nM,"CO[C@H]1CC[C@H](Nc2ncc(C#N)c(N[C@@H]3CCCC[C@H](O)C3)n2)CC1 [Example C-27, 4-((1R,3S)-3-hydroxycycloheptylamino)-2-((1r,4R)-4-methoxycyclohexylamino) pyrimidine-5-carbonitrile]"
10,< 200 nM,"CCO[C@H]1CC[C@H](Nc2ncc(C#N)c(N[C@@H]3CCC[C@](C)(O)C3)n2)CC1 [Example C-28, 2-((1r,4R)-4-ethoxycyclohexylamino)-4-((1R,3S)-3-hydroxy-3-methylcyclohexylamino) pyrimidine-5-carbonitrile]"
11,< 200 nM,"CCO[C@H]1CC[C@H](Nc2ncc(C#N)c(N[C@@H]3CCCC[C@H](O)C3)n2)CC1 [Example C-29, 2-((1r,4R)-4-ethoxycyclohexylamino)-4-((1R,3S)-3-hydroxycycloheptylamino) pyrimidine-5-carbonitrile]"
12,< 200 nM,"N#Cc1cnc(N[C@H]2CC[C@H](OCC(F)(F)F)CC2)nc1N[C@@H]1CCCC[C@H](O)C1 [Example C-30, 4-((1R,3S)-3-hydroxycycloheptylamino)-2-((1r,4R)-4-(2,2,2-trifluoroethoxy)cyclohexylamino) pyrimidine-5-carbonitril]"
13,200 to 800 nM,"N#Cc1cnc(N[C@H]2CC[C@H](O)CC2)nc1N[C@@H]1CCCC[C@@H]1O [Example C-31, 4-((1R,2S)-2-hydroxycyclohexylamino)-2-((1r,4R)-4-hydroxycyclohexylamino) pyrimidine-5-carbonitrile]"
14,< 200 nM,"N#Cc1cnc(N[C@H]2CC[C@H](OC(F)F)CC2)nc1N[C@@H]1CCCC[C@H](O)C1 [Example C-32, 2-((1r,4R)-4-(difluoromethoxy)cyclohexylamino)-4-((1R,3S)-3-hydroxycycloheptylamino) pyrimidine-5-carbonitrile]"
15,< 200 nM,"CC[C@]1(O)CCC[C@@H](Nc2nc(N[C@H]3CC[C@H](OC)CC3)ncc2C#N)C1 [Example C-33, 4-((1R,3S)-3-ethyl-3-hydroxycyclohexylamino)-2-((1r,4R)-4-methoxycyclohexylamino) pyrimidine-5-carbonitrile]"
16,< 200 nM,"CN(C)C(=O)C(C)(C)C1CCC(Nc2ncc(C#N)c(N[C@@H]3CCC[C@H](O)C3)n2)CC1 (stereo partly drawn) [Example C-34, 2-(4-(5-cyano-4-((1R,3S)-3-hydroxycyclohexylamino)pyrimidin-2-ylamino)cyclohexyl)-N,N,2-trimethylpropanamide]"
17,200 to 800 nM,"CN(C)C(=O)C(C)(C)C1CCC(Nc2ncc(C#N)c(N[C@@H]3CCC[C@H](O)C3)n2)CC1 (stereo partly drawn) [Example C-35, 2-(4-(5-cyano-4-((1R,3S)-3-hydroxycyclohexylamino)pyrimidin-2-ylamino)cyclohexyl)-N,N,2-trimethylpropanamide]"
